Assay results as given in patent EP0745595A1, “3-(3-Aryloxyphenyl)-1-(substituted methyl)-s-triazine-2,4,6-oxo or thiotrione herbicidal agents” (American Cyanamid Company, priority 1995, dated 1996).

What was measured:
Assay type in all cases: in vivo
[1] = tested on: AMBROSIA ARTEMISIIFOLIA, L.; assay: Postemergence herbicidal evaluation, AMBEL (Ragweed, Common); conditions: for AMBEL, herbicide rating (0-9): rated four to five weeks after treatment, averaged
Procedure, shortened: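 Postemergence herbicidal activity on AMBEL (common ragweed) was assessed on two-week-old seedlings grown in jiffy flats. Treatment solutions of 50/50 acetone/water with 0.5% TWEEN®20 surfactant were sprayed at 40 psi. After four to five weeks in the greenhouse, plants were scored 0-9 against a control for stand, vigor, malformation, size, chlorosis and overall appearance, with multiple tests averaged.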

[2] = tested on: CASSIA OBTUSIFOLIA, L.; assay: Postemergence herbicidal evaluation, CASOB (Sicklepod); parameters: key to CASOB rating / Herbicidal effect rating, CASOB / CASOB: 0-9 visual rating scale vs untreated control; conditions: for CASOB, herbicide rating (0-9): rated four to five weeks after treatment, averaged
Procedure, shortened: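 Postemergence foliar spray at approximately 0.125–0.500 kg/ha onto two-week seedlings; greenhouse hold, then 0–9 visual injury rating after 4–5 weeks.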

[3] = tested on: CHENOPODIUM ALBUM, L.; assay: Postemergence herbicidal evaluation, CHEAL (Lambsquarters, Common)
Procedure, shortened: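 Postemergence herbicidal activity on Chenopodium album was tested by spraying two-week-old seedlings grown in jiffy flats with compound in acetone/water (50/50) plus 0.5% TWEEN®20, using a 40 psi nozzle. Four to five weeks after treatment, stand, vigor, malformation, size, chlorosis and overall appearance were scored 0-9 relative to controls, with repeat tests averaged.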

[4] = tested on: IPOMOEA SPP.; assay: Postemergence herbicidal evaluation, IPOSS (Morningglory spp.); conditions: for IPOSS, herbicide rating (0-9): rated four to five weeks after treatment, averaged
Procedure, shortened: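 In this greenhouse postemergence herbicide test on Ipomoea spp. (morningglory), compounds in 50/50 acetone/water with 0.5% TWEEN®20 were sprayed at 40 psi onto seedlings about two weeks old grown in jiffy flats. After four to five weeks, injury was scored on a 0-9 scale covering stand, vigor, malformation, size, chlorosis and overall appearance versus control, with repeat tests averaged.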

[5] = tested on: GALIUM APARINE; assay: Postemergence herbicidal evaluation, GALAP (Galium); parameters: key to GALAP rating / Herbicidal effect rating, GALAP / GALAP: 0-9 visual rating scale vs untreated control; conditions: for GALAP, herbicide rating (0-9): rated four to five weeks after treatment, averaged
Procedure, shortened: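 In this postemergence greenhouse test, two-week-old Galium aparine seedlings grown in jiffy flats received a 40 psi spray of compound in acetone/water (50/50) with 0.5% TWEEN®20 surfactant. After four to five weeks, stand, vigor, malformation, size, chlorosis and overall appearance were compared with untreated controls on a 0-9 scale, averaging multiple tests.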

[6] = tested on: ECHINOCHLOA CRUS-GALLI, (L) BEAU; assay: Postemergence herbicidal evaluation, ECHCG (Barnyardgrass); parameters: key to ECHCG rating / Herbicidal effect rating, ECHCG / ECHCG: 0-9 visual rating scale vs untreated control
Procedure, shortened: (§1)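 Each value is a 0–9 visual rating of plant appearance compared with control, recorded 4–5 weeks after a 0.125–0.500 kg/ha spray, with multiple tests averaged.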

[7] = tested on: SETARIA VIRIDIS, (L) BEAU; assay: Postemergence herbicidal evaluation, SETVI (Foxtail, Green); parameters: key to SETVI rating / Herbicidal effect rating, SETVI / SETVI: 0-9 visual rating scale vs untreated control
Procedure, shortened: as §1

[8] = tested on: TRITICUM AESTIVUM, CV. APOLLO; assay: Postemergence herbicidal evaluation, TRZAWO (Wheat, Winter, CV. APOLLO); conditions: for TRZAWO, herbicide rating (0-9): crop, rated four to five weeks after treatment, averaged
Procedure, shortened: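 This greenhouse postemergence test applied compounds to roughly two-week-old wheat seedlings grown in jiffy flats. The spray solution was 50/50 acetone/water with 0.5% TWEEN®20, a polyoxyethylene sorbitan monolaurate, sprayed from a nozzle run at 40 psi. After four to five weeks of standard greenhouse care, injury was scored from 0 to 9 by comparing stand, vigor, malformation, size, chlorosis and overall appearance with a control. Multiple tests were averaged.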

[9] = tested on: ZEA MAYS L.; assay: Postemergence herbicidal evaluation, ZEAMX (Corn, Field)
Procedure, shortened: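 This greenhouse postemergence test treated corn plants about two weeks old. Compounds in a 50/50 acetone/water mixture with 0.5% TWEEN®20 were applied through a spray nozzle at 40 psi. After four to five weeks, injury was scored 0-9 against an untreated control, judging stand, vigor, malformation, size, chlorosis and overall appearance. Repeated tests were averaged.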

[10] = tested on: CHENOPODIUM ALBUM, L.; assay: Preemergence herbicidal evaluation, CHEAL (Lambsquarters, Common); conditions: for CHEAL herbicidal rating: rated four to five weeks after treatment
Procedure, shortened: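 Seeds mixed with potting soil were planted on about one inch of soil in cups, then sprayed with aqueous acetone solution of test compound at about 0.125 to 0.50 kg per hectare. Plants grown under greenhouse conditions; visual rating on a 0-9 scale versus untreated control at 4-5 weeks.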

[11] = tested on: ORYZA SATIVA, L. TEBONNET; assay: Rice tolerance to post-transplant applications under flooded paddy conditions, ORYSAT (Rice, Tebonnet); conditions: for Herbicidal effect rating, ORYSAT: post-transplant rice, 3-4 weeks after treatment; for ORYSAT: post-transplanted rice
Procedure, shortened: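 Greenhouse pots of silt loam, each with two transplanted ten-day-old seedlings, are held under 1.5 to 3 cm of standing water. Three days later the compound is applied to the flooded surface at about 0.5, 0.25, 0.125 or 0.063 kg/ha. Damage is scored visually 0-9 after 3-4 weeks.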

COC(=O)Cn1c(=O)n(C)c(=O)n(-c2cc(Oc3c(F)cc(C(F)(F)F)cc3Cl)ccc2[N+](=O)[O-])c1=O [Compound 16, Methyl 3-{5-[(2-chloro-α,α,α,6-tetrafluoro-p-tolyl)oxy]-2-nitrophenyl}tetrahydro-5-methyl-2,4,6-trioxo-s-triazine-1(2H)-acetate]
AMBEL ([1]; Rate 0.008 kg/ha): 7.0 | AMBEL ([1]; Rate 0.016 kg/ha): 9.0 | AMBEL ([1]; Rate 0.031 kg/ha): 9.0 | AMBEL ([1]; Rate 0.063 kg/ha): 9.0 | AMBEL ([1]; Rate 0.125 kg/ha): 9.0 | AMBEL, herbicide rating (0-9) ([1]; Rate 0.125 kg/ha): 9.0 | AMBEL, herbicide rating (0-9) ([1]; Rate 0.250 kg/ha): 9.0 | AMBEL, herbicide rating (0-9) ([1]; Rate 0.500 kg/ha): 9.0 | CASOB ([2]; Rate 0.008 kg/ha): 5.5 | CASOB ([2]; Rate 0.016 kg/ha): 8.7 | CASOB ([2]; Rate 0.031 kg/ha): 9.0 | CASOB ([2]; Rate 0.063 kg/ha): 8.3 | CASOB ([2]; Rate 0.125 kg/ha): 9.0 | CASOB, herbicide rating (0-9) ([2]; Rate 0.125 kg/ha): 9.0 | CASOB, herbicide rating (0-9) ([2]; Rate 0.250 kg/ha): 9.0 | CASOB, herbicide rating (0-9) ([2]; Rate 0.500 kg/ha): 9.0 | CHEAL ([3]; Rate 0.008 kg/ha): 0.0 | CHEAL ([3]; Rate 0.016 kg/ha): 1.5 | CHEAL ([3]; Rate 0.031 kg/ha): 3.0 | CHEAL ([3]; Rate 0.063 kg/ha): 3.7 | CHEAL ([3]; Rate 0.125 kg/ha): 6.5 | IPOSS ([4]; Rate 0.008 kg/ha): 6.0 | IPOSS ([4]; Rate 0.016 kg/ha): 7.0 | IPOSS ([4]; Rate 0.031 kg/ha): 7.0 | IPOSS ([4]; Rate 0.063 kg/ha): 8.3 | IPOSS ([4]; Rate 0.125 kg/ha): 9.0 | IPOSS, herbicide rating (0-9) ([4]; Rate 0.125 kg/ha): 9.0 | IPOSS, herbicide rating (0-9) ([4]; Rate 0.250 kg/ha): 9.0 | IPOSS, herbicide rating (0-9) ([4]; Rate 0.500 kg/ha): 9.0 | GALAP ([5]; Rate 0.008 kg/ha): 4.5 | GALAP ([5]; Rate 0.016 kg/ha): 6.0 | GALAP ([5]; Rate 0.031 kg/ha): 8.0 | GALAP ([5]; Rate 0.063 kg/ha): 9.0 | GALAP ([5]; Rate 0.125 kg/ha): 9.0 | GALAP, herbicide rating (0-9) ([5]; Rate 0.125 kg/ha): 9.0 | GALAP, herbicide rating (0-9) ([5]; Rate 0.250 kg/ha): 9.0 | GALAP, herbicide rating (0-9) ([5]; Rate 0.500 kg/ha): 9.0 | ECHCG ([6]; Rate 0.008 kg/ha): 0.0 | ECHCG ([6]; Rate 0.016 kg/ha): 0.5 | ECHCG ([6]; Rate 0.031 kg/ha): 0.7 | ECHCG ([6]; Rate 0.063 kg/ha): 1.7 | ECHCG ([6]; Rate 0.125 kg/ha): 3.7 | SETVI ([7]; Rate 0.008 kg/ha): 0.0 | SETVI ([7]; Rate 0.016 kg/ha): 0.0 | SETVI ([7]; Rate 0.031 kg/ha): 0.0 | SETVI ([7]; Rate 0.063 kg/ha): 0.8 | SETVI ([7]; Rate 0.125 kg/ha): 1.3 | TRZAWO ([8]; Rate 0.008 kg/ha): 4.5 | TRZAWO ([8]; Rate 0.016 kg/ha): 4.7 | TRZAWO ([8]; Rate 0.031 kg/ha): 6.4 | TRZAWO ([8]; Rate 0.063 kg/ha): 7.4 | TRZAWO ([8]; Rate 0.125 kg/ha): 8.4 | TRZAWO, herbicide rating (0-9) ([8]; Rate 0.125 kg/ha): 8.4 | TRZAWO, herbicide rating (0-9) ([8]; Rate 0.250 kg/ha): 8.4 | TRZAWO, herbicide rating (0-9) ([8]; Rate 0.500 kg/ha): 8.4 | ZEAMX ([9]; Rate 0.008 kg/ha): 2.0 | ZEAMX ([9]; Rate 0.016 kg/ha): 2.4 | ZEAMX ([9]; Rate 0.031 kg/ha): 3.0 | ZEAMX ([9]; Rate 0.063 kg/ha): 3.4 | ZEAMX ([9]; Rate 0.125 kg/ha): 4.2 | CHEAL ([10]; Rate 0.031 kg/ha): 9.0 | CHEAL ([10]; Rate 0.063 kg/ha): 9.0 | CHEAL ([10]; Rate 0.125 kg/ha): 9.0 | CHEAL herbicidal rating ([10]; Rate 0.125 kg/ha): 9.0 | CHEAL ([10]; Rate 0.250 kg/ha): 9.0 | CHEAL herbicidal rating ([10]; Rate 0.250 kg/ha): 9.0 | CHEAL herbicidal rating ([10]; Rate 0.500 kg/ha): 9.0 | Herbicidal effect rating, ORYSAT ([11]; 0.063 kg/ha): 3.5 | Herbicidal effect rating, ORYSAT ([11]; 0.125 kg/ha): 5.0 | Herbicidal effect rating, ORYSAT ([11]; 0.250 kg/ha): 7.0 | Herbicidal effect rating, ORYSAT ([11]; 0.500 kg/ha): 6.0 | ORYSAT ([11]; Rate 0.031 kg/ha): 3.0 | ORYSAT ([11]; Rate 0.063 kg/ha): 3.5 | ORYSAT ([11]; Rate 0.125 kg/ha): 5.0 | ORYSAT ([11]; Rate 0.250 kg/ha): 7.0

COC(=O)Cn1c(=O)n(C)c(=O)n(-c2cc(Oc3ccccn3)ccc2[N+](=O)[O-])c1=O [Compound 38, Methyl tetrahydro-3-methyl-5-[2-nitro-5-(2-pyridyloxy)phenyl]-2,4,6-trioxo-s-triazine-1(2H)-acetate]
AMBEL rating ([1]; Rate 0.500 kg/ha): 0.0 | CASOB rating ([2]; Rate 0.500 kg/ha): 0.0 | CHEAL rating ([3]; Rate 0.500 kg/ha): 0.0 | IPOSS rating ([4]; Rate 0.500 kg/ha): 0.0 | GALAP rating ([5]; Rate 0.500 kg/ha): 0.0 | ECHCG rating ([6]; Rate 0.500 kg/ha): 0.0 | SETVI rating ([7]; Rate 0.500 kg/ha): 0.0 | TRZAWO rating ([8]; Rate 0.500 kg/ha): 0.0 | ZEAMX rating ([9]; Rate 0.500 kg/ha): 0.0 | CHEAL herbicidal rating ([10]; Rate 0.500 kg/ha): 0.0 | Herbicidal effect rating, ORYSAT ([11]; 0.500 kg/ha): 0.0
